From PMC5691623 (Viruses, 2017)

Experiments:
[1] = tested on: IAV-infected RPE and A549 cells; type: cell-based, human
in vitro = settings: human
IAV = assay: microbe, parasite or virus in culture; type: cell-based, Human influenza A/Udorn/307/1972 (H3N2); settings: for EC50: Influenza A virus, RPE
[2] = parameters: method as in earlier work; settings: cited from earlier work
IAV-infected RPE cells [3] = type: cell-based, human
[4] = tested on: RPE or A549 cells treated with bacterial lipopolysaccharides (LPS); assay: Death of cells treated with bacterial LPS; type: cell-based, human; settings: LPS 10 µg/ml
[5] = tested on: vRNA-transfected RPE cells; type: cell-based, human
IAV-infected RPE cells [6] = type: cell-based, human; remark: listed apart in the source
mock-infected RPE cells = settings: human
MERS-CoV = type: cell-based; settings: Vero cells, 24 hpi, moi 0.1

| SMILES | rescue from ABT-263-mediated premature death [1] | CC50 (in vitro) | effect on viral replication (IAV) | EC50 (IAV) | also measured |
| --- | --- | --- | --- | --- | --- |
| Nc1ccn([C@@H]2O[C@H](CO)[C@@H](O)C2(F)F)c(=O)n1 [gemcitabine] | rescued |  |  |  |  |
| C[C@H]1C/C=C/Cc2cccc(O)c2C(=O)O[C@@H](C/C=C/NC(=O)C#Cc2ccccc2)C[C@H]1O [SaliPhe, Saliphenylhalamide] | rescued |  |  |  |  |
| CN(C)CC[C@H](CSc1ccccc1)Nc1ccc(S(=O)(=O)NC(=O)c2ccc(N3CCN(Cc4ccccc4-c4ccc(Cl)cc4)CC3)cc2)cc1[N+](=O)[O-] [ABT-737] |  | 350 nM | limited viral replication | 280 nM |  |
| Cc1c(-c2ccc(N3CCc4cccc(C(=O)Nc5nc6ccccc6s5)c4C3)nc2C(=O)O)cnn1CC12CC3CC(CC(C3)C1)C2 [A-1331852] |  | 50 nM | limited viral replication | < 10 nM |  |
| CN(C)CC#Cc1ccc(OCCCc2sc(N3CCc4cccc(C(=O)Nc5nc6ccccc6s5)c4C3)nc2C(=O)O)c(F)c1 [A-1155463] |  | 60 nM | limited viral replication | < 10 nM | side effect in animals [2]: reversible thrombocytopenia |
| CC1(C)CCC(CN2CCN(c3ccc(C(=O)NS(=O)(=O)c4ccc(NCC5CCOCC5)c([N+](=O)[O-])c4)c(Oc4cnc5[nH]ccc5c4)c3)CC2)=C(c2ccc(Cl)cc2)C1 [ABT-199] |  | 4640 nM |  | 3710 nM |  |
| COC1=CC(c2cc3ccccc3[nH]2)=N/C1=C\c1[nH]c(C)cc1C [Obatoclax, obatoclax] | rescued |  |  |  |  |
| CC1(C)CCC(c2ccc(Cl)cc2)=C(CN2CCN(c3ccc(C(=O)NS(=O)(=O)c4ccc(N[C@H](CCN5CCOCC5)CSc5ccccc5)c(S(=O)(=O)C(F)(F)F)c4)cc3)CC2)C1 [ABT-263] |  | 800 nM | limited viral replication | 80 nM | ΔAUC CTxG (IAV-infected RPE cells [3]): 2.5; death of LPS-treated cells [4]: did not accelerate the death; death of vRNA-transfected cells [5]: kills vRNA-transfected (160 ng) but not mock-transfected RPE cells; time post infection at which premature death of infected cells was observed (IAV-infected RPE cells [6]): ≤ 12 h; ΔAUC CTG (IAV-infected RPE cells [6]): 9.9; time without toxicity in mock-infected cells (mock-infected RPE cells): at least 36 h; PFU/ml (IAV): 0.01x10^6 PFU/ml; Virus titer FC (log10) (IAV): 2.0±0.2 log10; effect on MERS-CoV replication (MERS-CoV): blocks MERS-CoV replication |
| O=C(O)[C@H]1C2CCC(CC2)[C@@H]1Nc1nc(-c2c[nH]c3ncc(F)cc23)ncc1F [JNJ-872] | rescued |  |  |  |  |
